In brackets after ≈: the same amount, converted by molar mass.
Assays:
Tagia sp. = settings: chronic/long-term; growth
Folsomia candida = settings: chronic/long-term; duration: 28 days; reproduction
Typhlodromus pyri = test: LR50; higher = less toxic; settings: chronic/long-term; duration: 14 days; mortality
Aphidius rhopalosiphi = test: LR50; higher = less toxic; settings: acute; duration: 48 hours; mortality
Xenopus laevis = settings: chronic/long-term; duration: 21 days; growth
Cyprinodon variegatus = settings: acute; duration: 96 hours; mortality
[1] = chronic
Apis mellifera = settings: acute, mortality
Poephila guttata = settings: acute; oral; unspecified; mortality
Pimephales promelas = settings: chronic/long-term; duration: 35 days; reproduction
Anas platyrhynchos = settings: chronic/long-term

SMILES	NOEC (Tagia sp.) [mg/kg]	NOEC (Folsomia candida) [mg/kg]	LR50 (Typhlodromus pyri) [g/ha]	LR50 (Aphidius rhopalosiphi) [g/ha]	NOEC (Xenopus laevis) [mg/L]	LC50 (Cyprinodon variegatus) [µg/mL]	NOEC [1] [mg/L]	LD50 (Apis mellifera; dermal) [µg/piece]	LD50 (Apis mellifera; oral, unspecified) [µg/piece]	LD50 (Poephila guttata) [mg/kg-day]	LD50 (Rattus norvegicus; acute, oral, mortality) [mg/kg-day]	NOAEL (Rattus norvegicus; developmental, development) [mg/kg-day]	NOEC (Pimephales promelas) [mg/L]	NOAEL (Anas platyrhynchos) [mg/kg-day]
CC(=N)N(C)Cc1ccc(Cl)nc1 [Acetamiprid metabolite (IM-1-5)]	62.5	12.5	–	–	–	–	–	–	–	–	–	–	–	–
CC(=NC#N)N(C)Cc1ccc(Cl)nc1 [Acetamiprid]	–	0.27	29.7	2	2.6	100 (≈ 449 µM)	0.0011	9.26	8.85	5.7	146	2.5	9.4	9.5

Reference: EPA's ToxValDB 9.5 (doi:10.2903/j.efsa.2016.4610)
